Bridge positions count the residues as written; N and C are the ends. Ends that are not written are not given here.
Tests used:
[1] = molecular target: T1, α11β1 (UniProt P09055+Q9UKX5); experiment: Cellular static adhesion assay: C2C12 cells expressing α11β1 on collagen peptides; format: cell-based, human α-subunit, mouse β-subunit
T1 construct: expressed in transfected cells; host or cells: C2C12 mouse myofibroblasts, stably transfected
Procedure: (§1) C2C12s and HT1080s were grown in Lifetech DMEM/10% FBS and 1% penicillin/streptomycin. All cells were maintained under sterile conditions at 37 °C, 5% CO2. Cells were passaged using Trypsin/EDTA at 37 °C for 5 min and DMEM/10% FBS to quench the trypsin. C2C12 cells were transfected as described previously ([Tiger et al., 2001]). The C2C12-α10 clone was kindly made available by Dr. Evy Lundgren-Åkerlund, Xintela AB, Sweden.
(§2) Immulon 2HB 96-well plates were coated with 100 μl per well of peptides at 10 μg/ml in 0.01 M acetic acid overnight at 4 °C. After 3 × 200 μl/well PBS washes, plates were blocked with 200 μl/well filtered 3% BSA in PBS at RT for 1 h. Plates were washed, and 20,000 cells/well were added at room temperature (RT) for 1 h in serum-free media with 5 mM MgCl2 and varying concentrations of inhibitor. Unbound cells were washed away with 3× washes of 200 μl/well PBS. […] Cell number was quantified using 50 μl per well of the Roche cytotoxicity LDH kit. […] A490 was read in a SpectraMax 190 microplate reader (Molecular Devices). […]
(§3) PRISM 8.2.1 or later (GraphPad, San Diego, CA, USA), was used for all statistical tests. […] Inhibition curves were analysed using nonlinear regression comparing each data set with either a horizontal line model (null hypothesis, no inhibition) or three-parameter dose-response curve (inhibition occurs). […]

[2] = molecular target: T2, α1 I-domain (Homo sapiens, UniProt P56199); experiment: Protein static adhesion assay: GST-tagged α1 I-domain adhesion to GLOGEN peptide coating; format: binding; conditions: TC-I-15 200 μM, Obtustatin 20 μM, 6F1 10 μg/ml
T2 construct: GST-tagged αI-domains were tested in static adhesion assays; made in house
T2 sequence (P56199 161-360 limits assumed): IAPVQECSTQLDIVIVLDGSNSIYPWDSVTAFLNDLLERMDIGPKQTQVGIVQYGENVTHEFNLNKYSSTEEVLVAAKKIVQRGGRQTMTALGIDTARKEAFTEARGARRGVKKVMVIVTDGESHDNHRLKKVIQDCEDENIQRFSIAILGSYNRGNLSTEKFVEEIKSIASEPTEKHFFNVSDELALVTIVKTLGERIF
Procedure: Immulon 2HB 96-well plates were coated with 100 μl per well of peptides at 10 μg/ml in 0.01 M acetic acid. After 3 × 200 μl/well washes with washing buffer (1 mg/ml BSA in TBS), plates were blocked with 200 μl per well of filtered 3% BSA in TBS for 1 h at RT. αI-domains were added at 10 μg/ml in washing buffer for 1 h at RT with 5 mM MgCl2 and various concentrations of inhibitor as stated. After 3 × 200 μl/well washes with washing buffer, anti-GST detection antibody (GE Healthcare HRP conjugated anti-GST GERPN1236) were added for 1 h. Plates were washed 4× with 200 μl per well of washing buffer and bound protein was quantified using the Pierce™ TMB Substrate Kit. The colorimetric reaction was stopped with an equal volume of 1 M H2SO4 and A450 was read as above. Each condition was performed in triplicate and each experiment was repeated at least three times using different preparations of proteins. […]
Fig. 1 Inhibition of binding of recombinant αI-domains to peptide coatings. Adhesion of A, α1 I-domain to GLOGEN and B, α2 I-domain to GFOGER, was measured using anti-GST-HRP conjugated antibody as described in Materials and methods, and is shown as mean A450 ± SD. […]

[3] = system: platelets; design: method as in Miller et al., 2009; conditions: RGD-containing ligands; ref Miller et al., 2009; cited from earlier work
[4] = molecular target: T3, α10β1 (UniProt O75578+P09055); experiment: Cellular static adhesion assay: C2C12 cells expressing α10β1 on collagen peptides; format: cell-based, human α-subunit, mouse β-subunit; conditions: C2C12-α10β1, GFOGER and GLOGEN coatings
T3 construct: expressed in transfected cells; host or cells: C2C12-α10 clone (gift, Xintela AB)
T3 sequence (O75578 23-1167): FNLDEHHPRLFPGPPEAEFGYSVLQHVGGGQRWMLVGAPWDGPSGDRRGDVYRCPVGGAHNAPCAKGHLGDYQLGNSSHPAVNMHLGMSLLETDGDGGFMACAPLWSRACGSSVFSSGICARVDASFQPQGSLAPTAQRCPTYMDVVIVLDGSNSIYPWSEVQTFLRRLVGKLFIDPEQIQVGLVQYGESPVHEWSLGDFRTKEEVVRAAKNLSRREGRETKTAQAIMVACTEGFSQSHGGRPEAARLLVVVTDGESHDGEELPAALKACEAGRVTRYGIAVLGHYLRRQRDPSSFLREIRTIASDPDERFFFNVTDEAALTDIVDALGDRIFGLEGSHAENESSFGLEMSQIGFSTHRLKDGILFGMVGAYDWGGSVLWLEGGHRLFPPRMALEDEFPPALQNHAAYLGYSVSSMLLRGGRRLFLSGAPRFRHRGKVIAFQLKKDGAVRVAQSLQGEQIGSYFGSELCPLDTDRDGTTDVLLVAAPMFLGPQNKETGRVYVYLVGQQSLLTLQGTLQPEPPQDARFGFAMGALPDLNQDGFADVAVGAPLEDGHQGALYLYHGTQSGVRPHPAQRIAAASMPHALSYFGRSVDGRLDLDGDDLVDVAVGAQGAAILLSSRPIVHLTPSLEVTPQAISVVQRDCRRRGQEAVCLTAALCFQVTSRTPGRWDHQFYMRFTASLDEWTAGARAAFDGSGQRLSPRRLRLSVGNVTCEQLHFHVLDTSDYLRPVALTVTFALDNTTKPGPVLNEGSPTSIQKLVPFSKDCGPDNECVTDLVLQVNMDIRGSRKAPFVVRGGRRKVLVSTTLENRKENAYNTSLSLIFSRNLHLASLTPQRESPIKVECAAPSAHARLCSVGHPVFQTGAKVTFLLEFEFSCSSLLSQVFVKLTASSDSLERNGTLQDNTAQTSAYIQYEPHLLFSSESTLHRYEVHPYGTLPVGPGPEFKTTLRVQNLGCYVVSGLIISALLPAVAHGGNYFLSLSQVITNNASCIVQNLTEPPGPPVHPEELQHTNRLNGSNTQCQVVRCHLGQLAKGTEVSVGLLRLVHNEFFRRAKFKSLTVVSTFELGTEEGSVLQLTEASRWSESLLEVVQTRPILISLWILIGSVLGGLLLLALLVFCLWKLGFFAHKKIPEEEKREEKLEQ
T3 sequence (P09055 21-798): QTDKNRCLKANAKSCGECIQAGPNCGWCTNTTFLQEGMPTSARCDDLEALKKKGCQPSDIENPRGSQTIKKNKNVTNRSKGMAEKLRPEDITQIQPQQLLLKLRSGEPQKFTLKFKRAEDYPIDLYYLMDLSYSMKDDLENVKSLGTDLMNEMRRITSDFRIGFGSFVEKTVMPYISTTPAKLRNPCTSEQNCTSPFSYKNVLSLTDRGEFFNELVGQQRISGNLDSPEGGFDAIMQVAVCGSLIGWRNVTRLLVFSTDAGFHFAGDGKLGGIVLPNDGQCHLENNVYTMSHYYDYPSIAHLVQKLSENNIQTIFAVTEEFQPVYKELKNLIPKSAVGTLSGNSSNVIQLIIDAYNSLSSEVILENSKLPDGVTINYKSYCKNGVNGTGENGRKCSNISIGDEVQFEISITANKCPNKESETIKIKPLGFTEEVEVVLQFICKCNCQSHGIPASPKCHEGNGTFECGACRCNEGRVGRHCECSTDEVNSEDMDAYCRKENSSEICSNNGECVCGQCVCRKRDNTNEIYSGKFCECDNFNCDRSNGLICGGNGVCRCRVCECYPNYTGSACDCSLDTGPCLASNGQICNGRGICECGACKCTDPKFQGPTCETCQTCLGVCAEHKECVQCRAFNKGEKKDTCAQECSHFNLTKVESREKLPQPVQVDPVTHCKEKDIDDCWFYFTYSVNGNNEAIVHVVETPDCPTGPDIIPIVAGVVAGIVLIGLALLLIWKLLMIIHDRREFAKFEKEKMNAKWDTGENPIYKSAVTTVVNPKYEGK
Procedure: as §1, §2, §3

[5] = system: E318A mutation of α2β1; design: method as in Miller et al., 2009; conditions: ref Miller et al., 2009; cited from earlier work
[6] = molecular target: T4, α2 I-domain (Homo sapiens, UniProt P17301); experiment: Protein static adhesion assay: GST-tagged α2 I-domain adhesion to GFOGER peptide coating; format: binding; conditions: TC-I-15 200 μM, Obtustatin 20 μM
T4 construct: GST-tagged αI-domains were tested in static adhesion assays; made in house
T4 sequence (P17301 188-365 limits assumed): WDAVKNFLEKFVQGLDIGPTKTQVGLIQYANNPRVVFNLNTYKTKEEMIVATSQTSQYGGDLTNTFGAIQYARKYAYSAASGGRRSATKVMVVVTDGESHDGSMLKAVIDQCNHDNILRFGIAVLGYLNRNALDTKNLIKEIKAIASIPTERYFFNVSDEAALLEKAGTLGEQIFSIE
Procedure: Peptides contain a binding motif (such as GFOGER) flanked on either side by five GPP repeats and a GPC triplet at both the N- and C-termini. […] Peptides were dissolved at 5 mg/ml in 0.01 M acetic acid, heated to 70 °C for 5 min and allowed to cool overnight to enable triple helix folding. […]

[7] = system: Lewis lung carcinoma; design: method as in Marcinkiewicz et al., 2003; Brown et al., 2008; conditions: mouse Lewis lung carcinoma model; ref Marcinkiewicz et al., 2003; Brown et al., 2008; cited from earlier work
[8] = molecular target: T5, α2β1 (UniProt P09055+P17301); experiment: Cellular static adhesion assay: C2C12 cells expressing α2β1 on collagen peptides; format: cell-based, human α-subunit, mouse β-subunit; conditions: C2C12-α2β1, GFOGER and GLOGEN coatings
T5 construct: expressed in transfected cells; host or cells: C2C12 mouse myofibroblasts, stably transfected
From the text: (§4) (For interpretation of the references to colour in this figure legend, the reader is referred to the web version of this article.)

[9] = system: melanoma; design: method as in Marcinkiewicz et al., 2003; Brown et al., 2008; conditions: mice; ref Marcinkiewicz et al., 2003; Brown et al., 2008; cited from earlier work
[10] = molecular target: T6, α2β1 (Homo sapiens, UniProt P05556+P17301); experiment: Cellular static adhesion assay: HT1080 cells (express α2β1) on GFOGER; format: cell-based; conditions: GFOGER coating, dose curve
T6 construct: endogenous in cells; host or cells: HT1080 human fibrosarcoma cells
From the text: as §4

[11] = molecular target: integrin α1β1 on stably transfected C2C12 cells (human | mouse (endogenous in C2C12)) (UniProt P56199); experiment: static cell adhesion assay; inhibition by obtustatin (dose curve) of the adhesion of integrin-expressing cells to coated GFOGER; 1 h at RT, serum-free medium, 5 mM MgCl2; three-parameter dose-response fit
integrin α1β1 on stably transfected C2C12 cells (human | mouse (endogenous in C2C12)), sequence (P56199 29-1179, chain 1 of 2): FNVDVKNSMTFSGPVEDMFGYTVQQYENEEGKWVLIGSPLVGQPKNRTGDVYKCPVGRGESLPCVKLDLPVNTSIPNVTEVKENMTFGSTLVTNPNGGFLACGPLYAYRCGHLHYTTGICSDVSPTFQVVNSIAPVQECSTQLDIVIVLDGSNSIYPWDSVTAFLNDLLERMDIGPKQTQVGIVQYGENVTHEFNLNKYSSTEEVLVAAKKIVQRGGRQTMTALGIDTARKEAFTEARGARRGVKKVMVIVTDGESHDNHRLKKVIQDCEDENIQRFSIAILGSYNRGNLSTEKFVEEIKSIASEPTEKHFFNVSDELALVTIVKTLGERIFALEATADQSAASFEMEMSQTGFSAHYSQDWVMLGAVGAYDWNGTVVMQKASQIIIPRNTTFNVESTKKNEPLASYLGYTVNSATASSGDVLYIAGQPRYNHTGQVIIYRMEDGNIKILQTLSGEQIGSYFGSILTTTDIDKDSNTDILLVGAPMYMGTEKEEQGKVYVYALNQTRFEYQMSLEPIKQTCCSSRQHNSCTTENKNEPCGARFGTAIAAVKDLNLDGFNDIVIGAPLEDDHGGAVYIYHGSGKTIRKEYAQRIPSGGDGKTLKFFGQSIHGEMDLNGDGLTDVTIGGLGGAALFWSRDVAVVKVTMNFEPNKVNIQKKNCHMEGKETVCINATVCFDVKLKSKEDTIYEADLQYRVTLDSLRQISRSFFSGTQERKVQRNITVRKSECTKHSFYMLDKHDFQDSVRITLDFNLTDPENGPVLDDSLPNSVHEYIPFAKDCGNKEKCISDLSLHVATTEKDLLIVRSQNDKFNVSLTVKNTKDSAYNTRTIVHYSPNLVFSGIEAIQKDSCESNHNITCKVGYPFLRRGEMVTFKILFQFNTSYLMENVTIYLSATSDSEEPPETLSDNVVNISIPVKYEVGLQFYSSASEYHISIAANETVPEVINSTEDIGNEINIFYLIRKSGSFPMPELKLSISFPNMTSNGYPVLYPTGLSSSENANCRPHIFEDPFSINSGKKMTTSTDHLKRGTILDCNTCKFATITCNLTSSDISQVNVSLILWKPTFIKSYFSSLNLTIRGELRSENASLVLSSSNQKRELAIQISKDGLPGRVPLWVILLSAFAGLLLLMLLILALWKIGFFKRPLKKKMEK
integrin α1β1 on stably transfected C2C12 cells (human | mouse (endogenous in C2C12)), sequence (P09055 21-798, chain 2 of 2, further chain): as the sequence (P09055 21-798) above

[12] = molecular target: integrin α1β1 on stably transfected C2C12 cells (human | mouse (endogenous in C2C12)) (UniProt P56199); experiment: static cell adhesion assay; inhibition by obtustatin (dose curve) of the adhesion of integrin-expressing cells to coated GLOGEN; 1 h at RT, serum-free medium, 5 mM MgCl2; three-parameter dose-response fit

T1 sequence (Q9UKX5 23-1188): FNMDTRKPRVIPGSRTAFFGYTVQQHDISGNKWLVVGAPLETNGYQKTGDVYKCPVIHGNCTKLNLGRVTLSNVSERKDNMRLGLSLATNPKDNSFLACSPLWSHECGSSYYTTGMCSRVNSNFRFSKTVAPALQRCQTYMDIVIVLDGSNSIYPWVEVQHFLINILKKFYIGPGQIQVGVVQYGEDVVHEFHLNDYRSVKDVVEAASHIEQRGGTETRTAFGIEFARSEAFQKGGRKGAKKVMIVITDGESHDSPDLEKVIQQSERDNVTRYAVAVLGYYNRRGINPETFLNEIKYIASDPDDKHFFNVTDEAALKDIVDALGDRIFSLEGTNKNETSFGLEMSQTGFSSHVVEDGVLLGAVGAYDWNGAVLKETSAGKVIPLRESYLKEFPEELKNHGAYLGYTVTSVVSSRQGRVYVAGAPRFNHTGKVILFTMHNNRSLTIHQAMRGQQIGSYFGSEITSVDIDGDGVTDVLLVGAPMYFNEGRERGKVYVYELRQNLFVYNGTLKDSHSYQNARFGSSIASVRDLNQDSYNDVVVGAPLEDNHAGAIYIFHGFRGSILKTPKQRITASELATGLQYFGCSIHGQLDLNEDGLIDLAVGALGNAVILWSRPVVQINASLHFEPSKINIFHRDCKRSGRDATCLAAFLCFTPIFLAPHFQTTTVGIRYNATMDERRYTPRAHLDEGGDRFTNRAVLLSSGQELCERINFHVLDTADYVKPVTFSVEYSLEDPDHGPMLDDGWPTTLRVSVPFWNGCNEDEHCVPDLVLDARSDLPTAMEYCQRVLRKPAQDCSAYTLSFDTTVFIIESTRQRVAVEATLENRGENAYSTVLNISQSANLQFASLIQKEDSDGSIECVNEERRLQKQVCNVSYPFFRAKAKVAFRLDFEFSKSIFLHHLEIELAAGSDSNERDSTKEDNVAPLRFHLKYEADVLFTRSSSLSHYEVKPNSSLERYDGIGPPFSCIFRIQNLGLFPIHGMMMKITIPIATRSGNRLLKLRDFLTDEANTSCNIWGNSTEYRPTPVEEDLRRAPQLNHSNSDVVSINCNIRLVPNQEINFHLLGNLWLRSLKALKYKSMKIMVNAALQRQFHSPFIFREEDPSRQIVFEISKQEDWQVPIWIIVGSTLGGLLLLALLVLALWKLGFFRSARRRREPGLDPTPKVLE
T1 sequence (P09055 21-798): as the sequence (P09055 21-798) above

Compound: CC1(C)SCN(S(=O)(=O)c2ccccc2)[C@@H]1C(=O)N[C@@H](CNC(=O)NCc1ccccc1)C(=O)O [TC-I-15]
- IC50 ([1]; C2C12-α11β1, GLOGEN coating, 5 mM MgCl2, 1 h RT, read-out: IC50, inhibition of α11β1-expressing C2C12 cell adhesion to GLOGEN): 177 µM
- Effect on α1 I-domain adhesion to GLOGEN [2]: unaffected
- Effect on adhesion of platelets to fibronectin and fibrinogen [3]: no effect
- Inhibition of α10β1-expressing C2C12 cell adhesion (dose curve) [4]: no inhibition was seen
- Effect on constitutively active E318A mutation of α2β1 [5]: no effect

Compound: CTTGPCCRQCKLKPAGTTCWKTSLTSHYCTGKSCDCPLYPG (disulfide 1-10, 6-29, 7-34, 19-36 (inferred)) [obtustatin]
- Effect on α2 I-domain adhesion to GFOGER [6]: unaffected
- Reduction of tumour development [7]: 50%
- Inhibition of α2β1-expressing C2C12 cell adhesion (dose curve) [8]: no inhibition was observed
- Inhibition of α11β1-expressing C2C12 cell adhesion (dose curve) ([1]; C2C12-α11β1, GFOGER and GLOGEN coatings): no inhibition was observed
- Effect on α1 I-domain adhesion to GLOGEN [2]: unaffected
- Effect on melanoma growth [9]: blocked melanoma growth
- Inhibition of α10β1-expressing C2C12 cell adhesion (dose curve) [4]: no inhibition was observed
- Effect on HT1080 adhesion to GFOGER [10]: no effect

Compound: obtustatin (peptide)
- IC50 [11]: 450 nM
- IC50 [12]: 960 nM

— publication PMC8444087 (Toxicology and Applied Pharmacology, 2021)
